Measurements as given in patent US6361788B1, “Synergistic biocide composition” (Thor Chemie GmbH, priority 1997, dated 2002).
Read-outs that look alike come from different tables or passages of the source.

What was measured:
Type in all cases: cell-based
[1] = system: Escherichia coli; test: MIC and synergy of MIT/BIT (1:1) and HCHO in Müller-Hinton broth, 48 h
Protocol: (§1) The synergy index is calculated according to the method of F. C. Kull et al., Applied Microbiology, Vol. 9 (1961), p. 538. Here the synergy index is calculated using the following formula:
(§2) Synergy index SI=Qa/QA+Qb/QB.
The test batches contained a Müller-Hinton broth as a nutrient medium. The cell density was 10^6 cells/mL. The incubation time was 48 b at 25° C. Each sample was incubated on an incubation shaker at 120 rpm.

[2] = system: Pseudomonas aeruginosa; test: as above
Protocol: as §1, §2
The test batches contained a Müller-Hinton broth as a nutrient medium. The cell density was 10^6 cells/mL. The incubation time was 48 h at 25° C. Each sample was incubated on an incubation shaker at 120 rpm.

[3] = system: Aspergillus niger; test: MIC and synergy of MIT/BIT (1:1) and OIT in Sabouraud maltose broth, 72 h
Protocol: (§3) In all the examples in which an active substance mixture of MIT and BIT as well as additionally a further active biocidal substance was used, the weight ratio of MIT to BIT was 1:1.
as §1, §2
The synergy of an active substance mixture that contains 2-n-octylisothiazolin-3-one (OIT) in addition to MIT and BIT, against the microorganism Aspergillus niger is shown as in Example 1.
(§4) The test batches contained a Sabouraud maltose broth as a nutrient medium. The spore concentration was 10^6 per mL. The incubation time was 72 h at 25° C. Each sample was incubated on an incubation shaker at 120 rpm.

[4] = system: Penicillium funiculosum; test: as above; conditions: for growth of the microorganism: MIT/BIT ppm = row head c0; on growth of the microorganism: key: growth of the microorganism took place (symbol '+'); or not (symbol '−')
Protocol: as §3, §1, §2
The synergy of an active substance mixture that contains OIT in addition to MIT and BIT, against the microorganism Penicillium funiculosum is shown as in Example 1.
as §4

[5] = system: Saccharomyces cerevisiae; test: as above
Protocol: as §3, §1, §2
The synergy of an active substance mixture that contains OIT in addition to MIT and BIT, against the microorganism Saccharomyces cerevisiae is shown as in Example 1.
The test batches contained a Sabouraud maltose broth as a nutrient medium. The cell density was 10^6 cells/mL. The incubation time was 72 h at 25° C. Each sample was incubated on an incubation shaker at 120 rpm.

[6] = system: Pseudomonas aeruginosa; test: MIC and synergy of MIT/BIT (1:1) and OIT in Müller-Hinton broth, 144 h
Protocol: as §3, §1, §2
The synergy of an active substance mixture that contains OIT in addition to MIT and BIT, against the microorganism Pseudomonas aeruginosa is shown as in Example 1.
The test batches contained a Müller-Hinton broth as a nutrient medium. The cell density was 10^6 cells/mL. The incubation time was 144 h at 25° C. Each sample was incubated on an incubation shaker at 120 rpm.

C=O [HCHO, formaldehyde]
Qb/QB ([1]; 48 h): 1.00 | Synergy index Qa/QA + Qb/QB ([1]; 48 h): 1.00 | MIC ([1]; 48 h, read-out: MIC at HCHO concentration Qb): 300 µg/mL | Total concentration MIT/BIT + HCHO ([1]; at the MIC, 48 h): 300 ppm | MIC ([1]; read-out: MIC value): 300 µg/mL | Qb/QB [2]: 1.00 | Synergy index Qa/QA + Qb/QB [2]: 1.00 | Total concentration MIT/BIT + HCHO ([2]; at the MIC): 300 ppm | MIC ([2]; read-out: MIC at HCHO concentration Qb): 300 µg/mL | MIC ([2]; read-out: MIC value): 300 µg/mL

CCCCCCCCn1sccc1=O [OIT, 2-n-octylisothiazolin-3-one]
Qb/QB ([3]; Aspergillus niger, 72 h): 1.00 | Synergy index Qa/QA + Qb/QB ([3]; Aspergillus niger, 72 h): 1.00 | MIC at OIT concentration Qb ([3]; OIT share at the MIC, Aspergillus niger, 72 h): 5 ppm | Total concentration MIT/BIT + OIT ([3]; at the MIC, Aspergillus niger, 72 h): 5 ppm | MIC value ([3]; used alone, 72 h at 25° C.): 5 ppm | growth of the microorganism ([4]; OIT 0.25 ppm, 72 h): + | growth of the microorganism ([4]; OIT 0.5 ppm, 72 h): + | growth of the microorganism ([4]; OIT 1 ppm, 72 h): + | growth of the microorganism ([4]; OIT 2.5 ppm, 72 h): + | growth of the microorganism ([4]; OIT 5 ppm, 72 h): − | MIC at OIT concentration Qb ([4]; OIT share at the MIC, Penicillium funiculosum, 72 h): 5 ppm | Qb/QB ([4]; Penicillium funiculosum, 72 h): 1.00 | Synergy index Qa/QA + Qb/QB ([4]; Penicillium funiculosum, 72 h): 1.00 | Total concentration MIT/BIT + OIT ([4]; at the MIC, Penicillium funiculosum, 72 h): 5 ppm | MIC value ([4]; used alone, 72 h at 25° C.): 5 ppm | MIC at OIT concentration Qb ([5]; OIT share at the MIC, Saccharomyces cerevisiae, 72 h): 5 ppm | Qb/QB ([5]; Saccharomyces cerevisiae, 72 h): 1.00 | Synergy index Qa/QA + Qb/QB ([5]; Saccharomyces cerevisiae, 72 h): 1.00 | Total concentration MIT/BIT + OIT ([5]; at the MIC, Saccharomyces cerevisiae, 72 h): 5 ppm | MIC value ([5]; used alone, 72 h at 25° C.): 5 ppm | MIC at OIT concentration Qb ([6]; OIT share at the MIC, Pseudomonas aeruginosa, 144 h): 900 ppm | Qb/QB ([6]; Pseudomonas aeruginosa, 144 h): 1.00 | Synergy index Qa/QA + Qb/QB ([6]; Pseudomonas aeruginosa, 144 h): 1.00 | Total concentration MIT/BIT + OIT ([6]; at the MIC, Pseudomonas aeruginosa, 144 h): 900 ppm | MIC value ([6]; used alone, 144 h at 25° C.): over 800 ppm
